According to patent US20160045487A1, “COMPOSITIONS AND METHODS FOR TREATING NEUROPATHY” (CHILDEREN'S MEDICAL CENTER CORPORATION, priority 2013, published 2016):

Legend:
Format in all cases: in vivo, mouse
GFAP-DN-erbB4 mice [1] = experiment: Hot plate (54° C.) thermal nociception test, GFAP-DN-erbB4 small fiber neuropathy model
Protocol: (§1) As a first test, a cream containing XIB4035 (1.5 mM) was applied directly to the hind paws of GFAP-DN-erbB4 and wild type mice twice daily for a period of 4 weeks starting prior to symptom onset (P21). Mice of both genotypes were also treated with the base cream containing no drug for control. Mice were tested for responses to a noxious thermal stimulus prior to the initiation of treatment and every 7 days for the duration of the experiment.
However, in the clinic, therapy would almost certainly begin after patients present with symptoms of SFN. Therefore, it was determined whether topical XIB4035 can act as a disease-modifying agent in the GFAP-DN-erbB4 neuropathy model starting after animals are clearly symptomatic (P28). […] While IB4 labeling in mutant mice was lower than wild types regardless of treatment, IB4 signal was clearly present in mutant mice treated with XIB4035 while absent in those treated with control cream (FIG. 3D; 83% of XIB4035 treated mice (n=6) with IB4+ lamina II terminals vs 0% (n=4) in control treated mice) (FIG. 3D).
Transgenic mouse lines used were as previously described (Lacomis et al., Muscle Nerve 26, 173-188 (2002); Comblath et al., Current opinion in Neurology 19, 446-450 (2006)). Animals were kept in the animal facility with free access to food and water. Behavioral experiments were performed in a quiet environment at the same time of day. The hot plate test was performed using a “controlled hot-plate analgesia meter” (Columbus Instruments) heated to 54° C. Paw withdrawal latency was measured as the time required for the mouse to visibly respond to the thermal stimulus, e.g. licking paws, shaking paws, or jumping off of the plate.
The cream containing XIB4035 (1.5 mM, ZereneX Molecular Ltd., Manchester, UK) consisted of N-methyl-pyrrolidone (6.25%), isopropyl myristate (6.25%) and petroleum jelly (87.5%). Control cream had the same ingredients without XIB4035. Cream was applied twice daily to the hind paws of mice starting at P21 for a period of 4 weeks for prophylactic treatment of GFAP-DN-erbB4. […]

wild type mice = experiment: Hot plate thermal nociception test in wild type mice; conditions: cream 1.5 mM, 51° C. hotplate, P28-P42
Protocol: Thermal nociceptive responses in wild type mice treated with either control or XIB4035 (1.5 mM) containing cream were compared using the hotplate test (51° C.) beginning at four weeks of age (p28) and continued to six weeks of age (P42).
as §1
Transgenic mouse lines used were as previously described (Lacomis et al., Muscle Nerve 26, 173-188 (2002); Comblath et al., Current opinion in Neurology 19, 446-450 (2006)). Animals were kept in the animal facility with free access to food and water. Behavioral experiments were performed in a quiet environment at the same time of day. The hot plate test was performed using a “controlled hot-plate analgesia meter” (Columbus Instruments) heated to 54° C. Paw withdrawal latency was measured as the time required for the mouse to visibly respond to the thermal stimulus, e.g. licking paws, shaking paws, or jumping off of the plate. […]

GFAP-DN-erbB4 mice [2] = experiment: Electron microscopy of sciatic nerve Remak bundles, GFAP-DN-erbB4 mice
Protocol: as §1
The cream containing XIB4035 (1.5 mM, ZereneX Molecular Ltd., Manchester, UK) consisted of N-methyl-pyrrolidone (6.25%), isopropyl myristate (6.25%) and petroleum jelly (87.5%). Control cream had the same ingredients without XIB4035. Cream was applied twice daily to the hind paws of mice starting at P21 for a period of 4 weeks for prophylactic treatment of GFAP-DN-erbB4. Diabetic mice were treated twice daily for 8 weeks after streptozotocin (STZ) injection prior to onset of hyperglycemia and for another 8 weeks during neuropathy testing. Cream treatment in therapeutic studies using GFAP-DN-erbB4 mice was performed twice daily beginning after onset of SFN at P28 and either continued for 5 weeks (chronic treatment) or 1 week (acute treatment).
Tissue was prepared as in (Lacomis, supra). Briefly, mice were perfused intracardially with 2% paraformaldehyde, 2.5% gluteraldehyde and 0.03% picric acid in 0.1 M cacodylate buffer (pH 7.2). Tissue was post-fixed overnight at 4° C. and embedded in Epon. Ultrathin sections were cut, collected on cellodin-coated grids and stained using uranyl acetate and lead citrate. Photographs were taken using the Tecnai G2 Spirit BioTWIN transmission electron microscope.

[3] = test system: mutant and wild type mice; experiment: Observation for side effects of chronic topical treatment; conditions: treated twice a day for 7 weeks
Excerpt: Importantly, given the potential need for chronic application of XIB4035, the question of whether XIB4035 produces side effects in both mutant and wild type mice was examined.

[4] = GFAP-DN-erbB4 mice, XIB4035 cream 4 weeks

In the case of CCN(CC)CCCC(C)Nc1cc(/C=C/c2ccccc2Cl)nc2cc(Cl)ccc12 (centres unmarked) [XIB4035, N4-{7-chloro-2-[(E)-2-(2-chloro-phenyl)-vinyl]-quinolin-4-yl}-N1,N1-diethyl-pentane-1,4-diamine], the “reaction times to noxious thermal stimulus (thermal nociception)” value (GFAP-DN-erbB4 mice [1]; prophylactic, cream 1.5 mM on hind paws twice daily, 4 weeks from P21, 54° C. hot plate) is reported as “indistinguishable from wild type animals”, the “neuropathic symptoms (thermal nociception)” value (GFAP-DN-erbB4 mice [1]; therapeutic, treatment started after onset (P28), read one week later (P35), persisted with continued treatment) is reported as “significant reduction in symptoms” and the “neuropathic symptoms after interruption of treatment” value (GFAP-DN-erbB4 mice [1]; treatment initiated at P28, interrupted at P35) is reported as “neuropathic symptoms reappeared one week later”. The thermal hyperalgesia (wild type mice) was “did not induce thermal hyperalgesia”, the c-fiber area (GFAP-DN-erbB4 mice [2]; [4]) was 1.64 ± 0.07 µm² and the c-fibers/Remak bundle (GFAP-DN-erbB4 mice [2]; [4]) was 8.40 ± 0.83. For the same compound, the “degeneration of Remak bundles and C-fiber axons” value (GFAP-DN-erbB4 mice [2]; cream 1.5 mM twice daily P21-P49, sciatic nerve EM) was “prevented the degeneration of Remak bundles and C-fiber axons” and the “changes in appearance, food intake, skin health or other outward negative signs” value [3] was “no changes”.
